According to patent US20150297573A1, “TPL2 KINASE INHIBITORS FOR PREVENTING OR TREATING DIABETES AND FOR PROMOTING Beta-CELL SURVIVAL” (INSERM (Institut National De La Santé Et De La Recherche …, priority 2012, published 2015):
Read-outs that look alike come from different tables or passages of the source.

Experiments:
[1] = test system: ERK1/2; settings: islets from C57BL/6 mice; Tpl2 inhibitor 3 μM; cytokine mix 20 min
Description: (§1) 2D and 3B: 72 h after the first 40 nM siRNA transfection, INS-1E cells were treated or not, as described above. Phosphorylation and total protein amount were analyzed by Western blotting as described above. […] Data are expressed as ratio of phosphorylated on total protein amount and as fold of phosphorylation over basal in cells without treatment.

[2] = test system: p46/p54 c-Jun N-terminal kinases (JNK); settings: INS-1E cells
Description: as §1

[3] = test system: p90RSK; settings: islets from C57BL/6 mice; Tpl2 inhibitor 3 μM; cytokine mix 20 min
Description: as §1

[4] = test system: human pancreatic islets; experiment: Glucose-stimulated insulin secretion (stimulation index) of human islets exposed to cytokines; format: cell-based; settings: Tpl2 inhibitor 3 μM, cytokine mix 72 h, stimulation index 20 mM/2.8 mM glucose
Description: Human islets were treated in RPMI medium containing 0.2% human albumin with or without Tpl2 inhibitor (3 μM) and/or Exendin-4 (20 nM) during 2 h and then stimulated or not with Tpl2 inhibitor (3 μM), Exendin-4 (20 nM) and/or a cytokine mixture (IL-1β (1000 U/ml), TNF-α (1000 U/ml) and IFN-γ (1000 U/ml) for 72 h, and then submitted to a glucose-response test in KRB buffer. The stimulation index is defined as the ratio of stimulated (20 mM glucose) to basal (2.8 mM glucose) insulin secretion. Each column represents the mean±SEM of 5 replicates (each replicate corresponds to islets from one human donor). *P<0.05, **P<0.01, and ***P<0.001 vs cytokine effect in control cells.
INS-1E cells, mouse (5-10 islets per condition) or human islets (500-2000 IEQ per condition) were preincubated at 37° C. during 2 h with or without Tpl2 inhibitor (3 μM) and Exendin-4 (20 nM), and then incubated for different times (0, 8, 16, 24, 36, 48 or 72 h) with or without Tpl2-inhibitor (3 μM), IL-1β alone (10000 U/ml, 20 μg/ml), a cytokine mix (IL-1β (100 U/ml, 0.2 ng/ml), TNF-α (500 U/ml, 50 ng/ml), and IFN-γ (100 U/ml, 30 ng/ml) for INS-1E cells and mouse islets; and IL-1β (1000 U/ml, 2 ng/ml), TNF-α (1000 U/ml, 28 ng/ml) and IFN-γ (1000 U/ml, 833 ng/ml) for human islets), and/or Exendin-4 (20 nM). […]

[5] = test system: INS-1E cells; experiment: Apoptosis of INS-1E cells (cleaved caspase-3 and cleaved PARP, Western blotting)
Description: FIG. 5: Apoptotic effects of inflammatory cytokines in INS-1E cells and in mouse pancreatic islets under Tpl2 inhibition. A and C: INS-1E β-cells were treated in RPMI medium containing BSA 0.5% (A) or 7.5% SVF (C) with or without Tpl2 inhibitor (3 μM) during 2 h and then stimulated or not with Tpl2 inhibitor (3 μM) and IL-1β alone (20 ng/ml) for 48 h (A) or the cytokine mixture (IL-1β (0.2 μg/ml), TNFα (50 ng/ml), and IFNγ (30 ng/ml) for 24 h (C). Lysates were subjected to Western blotting with antibodies against cleaved caspase-3 (1:1000), total and cleaved PARP (1:1000) or β-actin (1:5000). Quantification of four to ten independent experiments is shown. Data are expressed as ratio of cleaved caspase-3 or cleaved PARP on β-actin protein amounts, and as fold of these proteins over basal in cells without treatment. Data are presented as the means±SEM. *P<0.05, **P<0.01, and ***P<0.001 vs stimulus effect in control cells. B: INS-1E β-cells were stimulated or not in RPMI medium containing SVF 7.5% with each cytokine alone or a mixture of the three (IL-1β (0.2 ng/ml), TNFα (50 ng/ml), or IFNγ(30 ng/ml) for 24 h. Lysates were subjected to Western blotting with antibodies against cleaved caspase-3 (1:1000) or β-actin (1:5000). Dotted line represents 100% of caspase-3 amount from untreated control cells. Quantification of four independent experiments is shown. Data are expressed as a percentage of cleaved caspase-3 protein amount in untreated cells (caspase-3/β-actin protein amount ratio). Data are presented as the means±SEM. *P<0.05, **P<0.01, and ***P<0.001 vs untreated control cells.

[6] = test system: p38; experiment: p38 phosphorylation in INS-1E β-cells (Western blotting); format: cell-based, rat; settings: INS-1E cells
Description: (§2) Quantification of three to five experiments is shown.
Tpl2 expression was specifically silenced in INS-1E cells using a validated set of 4 different 19-nucleotides siRNA duplexes (“ON-TARGETplus SMARTpool”, L-091828-01-0005) purchased from Dharmacon (ABgene Ltd, part of Thermo Fisher Scientific, Waltham, Mass.). […] Briefly, groups of 500,000 INS-1E cells were maintained in culture in the absence of penicillin and streptomycin for 24 h before being transfected with 40 nM siRNA-Lipofectamine™ 2000 complexes prepared in Opti-MEM medium at a 2:1 ratio. Medium was replaced 6 h after transfection with fresh antibiotic-free RPMI medium supplemented with 7.5% heat-inactivated FCS. A second transfection was performed 24 h after the first one to improve the transfection efficiency. The transfection efficiency was assessed using the “siGLO Green Transfection Indicator”. All assays were performed at least 50 h after the first transfection.
Proteins were visualized by enhanced chemiluminescence detection.

[7] = test system: p90RSK; experiment: p90RSK phosphorylation in INS-1E β-cells (Western blotting); format: cell-based, rat; settings: INS-1E cells, Tpl2 inhibitor 3 μM
Description: as §2
(§3) The rat β-cell line INS-1E was provided by Dr. Maechler (Department of Cell Physiology and Metabolism, Faculty of Medicine, University of Geneva, Geneva, Switzerland). Cells (passages 60-95) were maintained in culture as monolayer at 37° C. in humidified atmosphere with 5% CO2, using RPMI 1640 medium containing 11.1 mM glucose, and supplemented with 7.5% heat-inactivated FCS, 1 mM sodium pyruvate, 10 mM HEPES, 2 mM glutamine, 50 μM β-mercaptoethanol, 100 U/ml penicillin, and 100 μg/ml streptomycin. Experiments were performed in INS-1E cells at ˜70% confluence in 6-well plates.
(§4) Tpl2 expression was specifically silenced in INS-1E cells using a validated set of 4 different 19-nucleotides siRNA duplexes (“ON-TARGETplus SMARTpool”, L-091828-01-0005) purchased from Dharmacon (ABgene Ltd, part of Thermo Fisher Scientific, Waltham, Mass.). […] Briefly, groups of 500,000 INS-1E cells were maintained in culture in the absence of penicillin and streptomycin for 24 h before being transfected with 40 nM siRNA-Lipofectamine™ 2000 complexes prepared in Opti-MEM medium at a 2:1 ratio. Medium was replaced 6 h after transfection with fresh antibiotic-free RPMI medium supplemented with 7.5% heat-inactivated FCS. […] The transfection efficiency was assessed using the “siGLO Green Transfection Indicator”. […]

[8] = test system: MEK, MK2, Src, protein kinase C, and EGF receptor; settings: cited from earlier work
[9] = test system: isolated mouse islets; settings: Tpl2 inhibitor 3 μM, cytokine mix 24 h
Description: D: Isolated mouse islets were stimulated or not with a cytokine mix (IL-1β (1000 U/ml), TNF-α (1000 U/ml) and IFN-γ (1000 U/ml)) in RPMI medium for 24 h. The caspase-3/7 activity was measured using the “Caspase-Glo® 3/7 Assay”.
Pancreatic islets were isolated from male 10- to 12-weeks-old C57BL/6 mice following the injection of approximately 2 ml of 1 mg/ml collagenase XI through the bile duct. The pancreases were then removed, incubated under agitation at 37° C. for 9 minutes to complete the digestion and the islets were separated from the exocrine pancreatic tissue using a Histopaque-1077 gradient. The islets were then washed in cold PBS supplemented with 1.2 mM CaCl2, 1 mM MgCl2, and 5.6 mM glucose, handpicked under microscope, separated in groups composed of 200-300 islets and maintained in culture at 37° C. (95% air and 5% CO2) in RPMI 1640 containing 11.1 mM glucose and supplemented with 10% FCS, 2 mM glutamine, 100 units/ml penicillin and 100 μg/ml streptomycin for at least 24 h before being used.

[10] = test system: ERK1/2; experiment: ERK1/2 phosphorylation in INS-1E β-cells (Western blotting); format: cell-based, rat; settings: INS-1E cells, Tpl2 inhibitor 3 μM
Description: as §2, §3, §4

[11] = test system: INS-1E cells; settings: Tpl2 inhibitor 5 μM, 24 h in conditioned medium of LPS-activated RAW264.7
Description: RAW264.7 macrophages were maintained in DMEM containing 5% (vol/vol) heat-inactivated fetal bovine serum and antibiotics at 37° C. and 5% CO2/95% air atmosphere. RAW264.7 macrophages were incubated for 24 h with LPS (Lipopolysaccharide) (0.5 ng/ml), and the resulting conditioned medium was transferred onto INS-1E cells treated with or without Tpl2 inhibitor (5 μM). Lysates were subjected to Western blotting with antibodies against cleaved caspase-3 (1:1000), or HSP90 (1:1000). […] Data are expressed as ratio of cleaved caspase-3 on HSP90 protein amount, and as fold of cleaved caspase-3 over basal in cells in control culture medium without Tpl2 inhibitor treatment.

[12] = test system: db/db mice
Description: FIG. 8: Effect of in vivo inhibition of Tpl2 on initial and body weights. Five-week-old db/db mice were obtained from Janvier Ltd and fed with a standard diet (4% fat) all over the study. All mice had free access to food and fresh water and were kept on a 12 h-day/12 h-night cycle. Body weights were recorded until the day of sacrifice prior to intraperitoneal (ip) administration of glucose, insulin or the daily injection of 2.5 mg/kg Tpl2 inhibitor or of the corresponding vehicle.
FIG. 9: Effect of in vivo inhibition of Tpl2 on fasting glucose and plasma insulin levels. Five-week-old db/db mice were obtained from Janvier Ltd and fed with a standard diet (4% fat) all over the study. All mice had free access to food and fresh water and were kept on a 12 h-day/12 h-night cycle. Fast and blood glucose concentrations were determined with a (Verio Onetouch, Lifescan, Johnson and Johnson Company) glucometer using blood sampled from the tail vein on mice receiving daily injection of 2.5 mg/kg Tpl2 inhibitor or of the corresponding vehicle. Serum insulin levels were quantified by radioimmunoassay (RIA rat insulin kit, Millipore) using blood sampled from the tail vein on the first day of the study or jugular arteries the day of the sacrifice.
(§5) FIG. 10: Effect of in vivo inhibition of Tpl2 on glucose tolerance and insulin tolerance. Five-week-old db/db mice were obtained from Janvier Ltd and fed with a standard diet (4% fat) all over the study. All mice had free access to food and fresh water and were kept on a 12 h-day/12 h-night cycle. Mice received daily injection of 2.5 mg/kg Tpl2 inhibitor or of the corresponding vehicle. Glucose tolerance tests were performed by ip administration of 1-2 g/kg glucose after a 16 h overnight fast and blood glucose concentrations were determined with a (Verio Onetouch, Lifescan, Johnson and Johnson Company) glucometer using blood sampled from the tail vein. Insulin tolerance tests were carried out in a similar manner following the ip administration of 0.75 U insulin per kg body weight to non-fasted mice.
as §5, with “Five-week-old” for “FIG. 10: Effect of in vivo inhibition of Tpl2 on glucose tolerance and insulin tolerance. Five-week-old”, “Body weights were recorded until the day of sacrifice prior to intraperitoneal (ip) administration of glucose, insulin or the” for “Mice received”, “mice. Serum insulin levels were quantified by radioimmunoassay (RIA rat insulin kit, Millipore) using blood sampled from the tail vein on the first day of the study or jugular arteries the day of the sacrifice.” for “mice.”
The progressive development of type 2 diabetes as observed in db/db mice is associated with increased body weight, insulin resistance, hyperglycemia and impaired glucose tolerance.

[13] = test system: ERK1/2; settings: human islets; Tpl2 inhibitor 3 μM 2 h; cytokine mix 20 min
Description: Human islets were isolated, cultured 24-72 h for recovery in CMRL medium containing 10% SVF, treated with KRBH buffer with or without Tpl2 inhibitor (3 μM) during 2 h and then stimulated or not with a cytokine mix (IL-1β (100 U/ml), TNF-α (500 U/ml), and IFNγ(100 U/ml)) for 20 min. Lysates were subjected to western blot analysis with antibodies against phosphorylated ERK1/2 (1:1000) or β-actin (1:2000). […] Data are expressed as ratio of phosphorylated ERK2 on β-actin amount and as a fold increase over basal in islets without treatment. Data are expressed as the means±SEM. *P<0.05, vs stimulus effect in control cells.
Human pancreases were harvested from five brain-dead non-obese non-diabetic donors in agreement with the French Agence de la Biomedecine and the local Institutional Ethical Committee. […]
Human islets were isolated, cultured 24-72 h for recovery in CMRL medium containing 10% SVF, treated with KRBH buffer with or without Tpl2 inhibitor (3 μM) during 2 h and then stimulated or not with a cytokine mix (IL-1β (100 U/ml), TNF-α (500 U/ml), and IFNγ (100 U/ml)) for 20 min. […] Data are expressed as ratio of phosphorylated ERK2 on b-actin amount and as a fold increase over basal in islets without treatment. Data are expressed as the means±SEM. *P<0.05, vs stimulus effect in control cells.

[14] = INS-1E cells, Tpl2 inhibitor 3 μM, IL-1β 20 ng/ml 48 h
[15] = INS-1E cells, Tpl2 inhibitor 3 μM, cytokine mix 24 h

SMILES: N#Cc1cnc2cnc(NCc3cccnc3)cc2c1Nc1ccc(F)c(Cl)c1 [Tpl2 inhibitor, 4-(3-Chloro-4-fluorophenylamino)-6-(pyridine-3-yl-methylamino)-3-cyano-[1,7]napthyridine]
- inhibition of cytokine-stimulated ERK1/2 phosphorylation [1]: efficient at inhibiting
- effect on IL-1β-induced p46/p54 JNK phosphorylation ([2]; 3 μM): no effect
- effect on IL-1β-induced p46/p54 JNK phosphorylation ([2]; 10 μM (data not shown)): no effect
- inhibition of cytokine-stimulated p90RSK phosphorylation [3]: efficient at inhibiting
- prevention of cytokine-induced insulin secretion failure [4]: ~50%
- decrease in cleaved PARP level induced by IL-1β [5, 14]: ~30%
- decrease in cleaved caspase-3 level induced by IL-1β [5, 14]: ~45%
- decrease in cleaved PARP level induced by the mixture of cytokines [5, 15]: ~25%
- decrease in cleaved caspase-3 level induced by the mixture of cytokines [5, 15]: ~30%
- INS-1E cell apoptosis with Tpl2 inhibitor alone ([5]; long term treatment, 3 μM, no cytokine): did not increase
- effect on IL-1β-induced p38 phosphorylation ([6]; 3 μM): no effect
- effect on IL-1β-induced p38 phosphorylation ([6]; 10 μM (data not shown)): no effect
- inhibition of IL-1β-induced p90RSK phosphorylation ([7]; IL-1β 20 ng/ml 20 min, same extent as ERK1/2 (60%)): inhibited to the same extent
- inhibition of cytokine-induced p90RSK phosphorylation ([7]; cytokine mix 20 min, same extent as ERK1/2 (50-60%)): inhibited to the same extent
- inhibition or activation of other protein kinases ([8]; concentration <5 μM that prevents activation of the ERK1/2 cascade): No other protein kinase has been found to be inhibited or activated
- selectivity over other related kinases (MEK, MK2, Src, protein kinase C, EGF receptor) ([8]; concentrations below 5 μM): significant selectivity
- decrease of caspase-3/7 activity induced by the mixture of cytokines [9]: ~50%
- suppression of IL-1β-induced ERK1/2 phosphorylation ([10]; 2 h, IL-1β 20 ng/ml 20 min): 60%
- suppression of cytokine-induced ERK1/2 phosphorylation ([10]; cytokine mix IL-1β+TNF-α+IFN-γ 20 min): 50-60%
- decrease of cleaved caspase-3 induced by macrophage conditioned medium [11]: around 55%
- body weights vs vehicle-treated db/db mice ([12]; 2.5 mg/kg daily ip, 2 weeks): not different
- tolerance to glucose challenges ([12]; 2.5 mg/kg daily ip, after 7 days): significantly improved
- insulin sensitivity (insulin tolerance test) ([12]; 2.5 mg/kg daily ip, after 14 days): significant improvement
- serum insulin level at fast ([12]; 2.5 mg/kg daily ip, day 14, vehicle 11.3±1.2): 4.3 ± 0.4 ng/mL
- blood glucose concentration at fast ([12]; 2.5 mg/kg daily ip, day 14, vehicle 258.6±40.7): 144.0 ± 15.5 mg/dL
- toxicity ([12]; daily ip 2.5 mg/kg, 2 weeks): not toxic
- inhibition of phosphorylation/activation of ERK1/2 induced by the cytokine mixture [13]: significantly efficient at inhibiting
